Results on 25 molecules are retold here after US8415379B2, “Pyridines” (Hoffmann-La Roche Inc., priority 2009, dated 2013).

This assay concerns the target T1, GABA A α5 (human receptors of composition α5β3γ2) (Homo sapiens, UniProt P18507+P31644).
T1 construct: expressed in transfected cells; host or cells: HEK293 cells, transiently transfected; membrane homogenates used
Briefly: [3H]flumazenil competition binding assay, human GABA A α5β3γ2 receptors in HEK293 cells. Conditions: displacement of 0.5 nM [3H]flumazenil, HEK293 membranes, 1 hour at 4° C., means of two determinations, read-out: hKi GABA A α5. The protocol: The affinity of compounds at GABA A receptor subtypes was measured by competition for [^3H]flumazenil (85 Ci/mmol; Roche) binding to HEK293 cells expressing rat (stably transfected) or human (transiently transfected) receptors of composition α1β3γ2, α2β3γ2, α3β3γ2 and α5β3γ2.
Cell pellets were suspended in Krebs-tris buffer (4.8 mM KCl, 1.2 mM CaCl2, 1.2 mM MgCl2, 120 mM NaCl, 15 mM Tris; pH 7.5; binding assay buffer), homogenized by polytron for ca. 20 sec on ice and centrifuged for 60 min at 4° C. (50000 g; Sorvall, rotor: SM24=20000 rpm). The cell pellets were re-suspended in Krebs-tris buffer and homogenized by polytron for ca. 15 sec on ice. Protein was measured (Bradford method, Bio-Rad) and aliquots of 1 mL were prepared and stored at −80° C.
Radioligand binding assays were carried out in a volume of […] (96-well plates) which contained […] of cell membranes, [^3H]flumazenil at a concentration of 1 nM for α1, α2 and α3 subunits and 0.5 nM for α5 subunits and the test compound in the range of […]. Nonspecific binding was defined by 10^−5 M diazepam and typically represented less than 5% of the total binding. Assays were incubated to equilibrium for 1 hour at 4° C. and harvested onto GF/C uni-filters (Packard) by filtration using a Packard harvester and washing with ice-cold wash buffer (50 mM Tris; pH 7.5). After drying, filter-retained radioactivity was detected by liquid scintillation counting. Ki values were calculated using Excel-Fit (Microsoft) and are the means of two determinations.
With `Cc1onc(-c2ccc(F)cn2)c1COc1ccc(C(=O)N2CCS(=O)(=O)CC2)nc1` [Example 26, (1,1-Dioxo-1,6-thiomorpholin-4-yl)-{5-[3-(5-fluoro-pyridin-2-yl)-5-methyl-isoxazol-4-ylmethoxy]-pyridin-2-yl}-methanone], the Ki is 36.9 nM. For `Cc1onc(-c2ccccn2)c1COc1ccc(C(=O)N[C@H]2CCC[C@@H]2O)nc1` [Example 18, 5-(5-Methyl-3-pyridin-2-yl-isoxazol-4-ylmethoxy)-pyridine-2-carboxylic acid ((1S,2S)-2-hydroxy-cyclopentyl)-amide] the value was 5.6 nM; for `Cn1cc(NC(=O)c2ccc(OCc3c(-c4ccc(F)cc4)noc3CO)cn2)cn1` [Example 35, 5-[3-(4-Fluoro-phenyl)-5-hydroxymethyl-isoxazol-4-ylmethoxy]-pyridine-2-carboxylic acid (1-methyl-1H-pyrazol-4-yl)-amide], 3.4 nM; for `CCNC(=O)c1ccc(OCc2c(-c3ccccn3)noc2C)cn1` [Example 15, 5-(5-Methyl-3-pyridin-2-yl-isoxazol-4-ylmethoxy)-pyridine-2-carboxylic acid ethylamide], 5.8 nM.

`Cc1onc(-c2ccc(F)cn2)c1COc1ccc(C(=O)NN2CCOCC2)nc1` [Example 25, 5-[3-(5-Fluoro-pyridin-2-yl)-5-methyl-isoxazol-4-ylmethoxy]-pyridine-2-carboxylic acid morpholin-4-ylamide]: the Ki was 3.9 nM. For `Cc1onc(-c2ccccc2)c1COc1ccc(C(=O)NN2CCOCC2)nc1` [Example 5, 5-(5-Methyl-3-phenyl-isoxazol-4-ylmethoxy)-pyridine-2-carboxylic acid morpholin-4-ylamide] the value was 17 nM; for `Cc1onc(-c2ccc(F)cn2)c1COc1ccc(C(=O)NC(C)C)nc1` [Example 23, 5-[3-(5-Fluoro-pyridin-2-yl)-5-methyl-isoxazol-4-ylmethoxy]-pyridine-2-carboxylic acid isopropylamide], 3.3 nM; for `Cc1onc(-c2ccc(F)cn2)c1COc1ccc(C(=O)NCC(F)(F)F)nc1` [Example 28, 5-[3-(5-Fluoro-pyridin-2-yl)-5-methyl-isoxazol-4-ylmethoxy]-pyridine-2-carboxylic acid (2,2,2-trifluoro-ethyl)-amide], 4.2 nM. For `CCC(CO)NC(=O)c1ccc(OCc2c(-c3ccccn3)noc2C)cn1` (racemic) [Example 20, Rac-5-(5-Methyl-3-pyridin-2-yl-isoxazol-4-ylmethoxy)-pyridine-2-carboxylic acid (1-hydroxymethyl-propyl)-amide] the value was 8.1 nM. Turning to `Cc1onc(-c2ccccn2)c1COc1ccc(C(=O)NCC(F)(F)F)nc1` [Example 13, 5-(5-Methyl-3-pyridin-2-yl-isoxazol-4-ylmethoxy)-pyridine-2-carboxylic acid (2,2,2-trifluoro-ethyl)-amide], the Ki was determined as 4.6 nM. Consider `CC(NC(=O)c1ccc(OCc2c(-c3ccc(F)cc3)noc2CO)cn1)C(F)(F)F` (stereo not shown) [Example 32, 5-[3-(4-Fluoro-phenyl)-5-hydroxymethyl-isoxazol-4-ylmethoxy]-pyridine-2-carboxylic acid (2,2,2-trifluoro-1-methyl-ethyl)-amide], for which the Ki amounted to 60.4 nM. Regarding `O=C(NC1CC1)c1ccc(OCc2c(-c3ccc(F)cc3)noc2CO)cn1` [Example 31, 5-[3-(4-Fluoro-phenyl)-5-hydroxymethyl-isoxazol-4-ylmethoxy]-pyridine-2-carboxylic acid cyclopropylamide], the Ki was 23.3 nM.

With `Cc1onc(-c2ccccn2)c1COc1ccc(C(=O)NCCO)nc1` [Example 14, 5-(5-Methyl-3-pyridin-2-yl-isoxazol-4-ylmethoxy)-pyridine-2-carboxylic acid (2-hydroxy-ethyl)-amide], the Ki turned out to be 7.8 nM. Consider `O=C(NCC(F)(F)F)c1ccc(OCc2c(-c3ccc(F)cc3)noc2CO)cn1` [Example 33, 5-[3-(4-Fluoro-phenyl)-5-hydroxymethyl-isoxazol-4-ylmethoxy]-pyridine-2-carboxylic acid (2,2,2-trifluoro-ethyl)-amide], for which the Ki was determined as 10.2 nM. On to `Cc1onc(-c2ccccn2)c1COc1ccc(C(=O)N[C@@H](C)C(F)(F)F)nc1` [Example 22, 5-(5-Methyl-3-pyridin-2-yl-isoxazol-4-ylmethoxy)-pyridine-2-carboxylic acid ((S)-2,2,2-trifluoro-1-methyl-ethyl)-amide], for which the Ki stood at 5.6 nM.

With `Cc1onc(-c2ccc(F)cn2)c1COc1ccc(C(=O)NC2CC2)nc1` [Example 27, 5-[3-(5-Fluoro-pyridin-2-yl)-5-methyl-isoxazol-4-ylmethoxy]-pyridine-2-carboxylic acid cyclopropylamide], the Ki came out at 2.6 nM. For `Cc1onc(-c2ccccn2)c1COc1ccc(C(=O)NCC2CC2)nc1` [Example 12, 5-(5-Methyl-3-pyridin-2-yl-isoxazol-4-ylmethoxy)-pyridine-2-carboxylic acid cyclopropyl-methyl-amide] the value was 7.1 nM.

`CC[C@@H](CO)NC(=O)c1ccc(OCc2c(-c3ccc(F)cc3)noc2CO)cn1` [Example 34, 5-[3-(4-Fluoro-phenyl)-5-hydroxymethyl-isoxazol-4-ylmethoxy]-pyridine-2-carboxylic acid ((S)-1-hydroxymethyl-propyl)-amide]: the Ki was found to be 8.3 nM. For `O=C(c1ccc(OCc2c(-c3ccc(F)cc3)noc2CO)cn1)N1CCC(F)(F)CC1` [Example 37, (4,4-Difluoro-piperidin-1-yl)-{5-[3-(4-fluoro-phenyl)-5-hydroxymethyl-isoxazol-4-ylmethoxy]-pyridin-2-yl}-methanone] the value was 10.2 nM. For `CNC(=O)c1ccc(OCc2c(-c3ccccn3)noc2C)cn1` [Example 16, 5-(5-Methyl-3-pyridin-2-yl-isoxazol-4-ylmethoxy)-pyridine-2-carboxylic acid methylamide] the value was 7.1 nM; for `Cc1onc(-c2ccccc2)c1COc1ccc(C(=O)NCCO)nc1` [Example 1, 5-(5-Methyl-3-phenyl-isoxazol-4-ylmethoxy)-pyridine-2-carboxylic acid (2-hydroxy-ethyl)-amide], 15.4 nM; for `CC(C)NC(=O)c1ccc(OCc2c(-c3ccc(F)cc3)noc2CO)cn1` [Example 29, 5-[3-(4-Fluoro-phenyl)-5-hydroxymethyl-isoxazol-4-ylmethoxy]-pyridine-2-carboxylic acid isopropylamide], 70.2 nM. For `Cc1onc(-c2ccccc2)c1COc1ccc(C(=O)NN(C)C)nc1` [Example 4, 5-(5-Methyl-3-phenyl-isoxazol-4-ylmethoxy)-pyridine-2-carboxylic acid N′,N′-dimethyl-hydrazide] the value was 26.5 nM. Turning to `CC[C@@H](CO)NC(=O)c1ccc(OCc2c(-c3ccccn3)noc2C)cn1` [Example 21, 5-(5-Methyl-3-pyridin-2-yl-isoxazol-4-ylmethoxy)-pyridine-2-carboxylic acid ((S)-1-hydroxymethyl-propyl)-amide], the Ki stood at 4.3 nM. For `O=C(NN1CCCC1)c1ccc(OCc2c(-c3ccc(F)cc3)noc2CO)cn1` [Example 38, 5-[3-(4-Fluoro-phenyl)-5-hydroxymethyl-isoxazol-4-ylmethoxy]-pyridine-2-carboxylic acid pyrrolidin-1-ylamide] the value was 3.4 nM.
